Key:
Format in all cases: in vivo, human
[1] = test system: chronic overuse tendinopathies; assay: The three tendinopathy clinical trials taken together
Excerpt: (§1) Three clinical trials were approved by an institutional Ethics Committee. Patients with clinical diagnoses of the specified tendinopathies were recruited through newspaper advertisements and private consulting rooms. All subjects were over 18 years of age, and gave written informed consent.
(§2) The patients were randomly allocated into two groups. […] The active and placebo patches were indistinguishable from one another. The randomization was controlled by the senior pharmacist at the institution who also supervised the packaging of transdermal patches and their distribution to patients. Both the patients and the clinical examiner were blinded as to which group the patients were in, i.e. double-blind.
(§3) Patients were instructed in the application of the patches at their initial visit. They were informed that the dosing regimen was one quarter of a transdermal patch to be applied daily to the skin area closest to the affected tendon. The patches were to be left in situ for 24 hours and then replaced with a new quarter patch. […] Patients were instructed to rotate the patch application site around this point with each new patch application for the six-month study duration in an effort to minimize application site irritation.
A single examiner assessed all patients and recorded information on clinical outcome measures. All clinical assessments were repeated at week 0, 2, 6, 12, and 24 with an identical format. Records of headaches, paracetamol use, and compliance with patch application and the tendon rehabilitation program were also made at these scheduled visits. Patients were excluded from the trials for non-compliance at any two visits.
Outcome measures were analyzed with Sigmastat 2.0 statistical software (Jandel Scientific, California, U.S.A) using Mann-Whitney rank sum tests to compare differences between groups, and using the Wilcoxon sign rank test to compare differences within the groups. The level of significance was defined at p=0.05. A Chi square analysis of patient reported symptom outcomes at week 24 was performed. Effect size estimates were calculated by dividing the mean z-score, calculated from all outcome measures at week 24, by the square root of the sample size to given a general measure of the overall effect of the patch on pain, tendon force and function.

[2] = test system: de Quervain's tendinopathy in the right extensor tendons of the thumb; assay: Example 4: patient case, de Quervain's tendinopathy
Excerpt: A patient suffering de Quervain's tendinopathy in the right extensor tendons of the thumb applies a transdermal patch delivering 10 mcg/hr nitroglycerin for a period of 24 weeks. This condition can be caused due to the arrival of a new baby and the consequent carrying as an unusual daily activity, and as is common, physical therapy and intermittent use of a wrist splint may provide little relief of symptoms.

[3] = test system: chronic supraspinatus tendinopathy
Excerpt: as §1
In the non-insertional Achilles tendinopathy trial, there were 65 patients (84 Achilles tendons) with 40 men and 25 women enrolled in the study, having a median age of 49 years (range 24 to 77 years), and a median duration of symptoms prior to the study of 16 months (range 4 to 147 months). In the extensor tendinopathy trial, there were 86 patients (95 elbows), with 42 males and 44 females, having a median age of 46 years (range 30 to 74 years), and a median duration of symptoms of 17 months (range 3 to 232 months). In the supraspinatus tendinopathy trial, there were 53 patients (57 shoulders), with 24 males and 29 females, having a median age of 52 years (range 25 to 79 years), and a median symptom duration of 14 months (range 4 to 96).
Diagnostic criteria for patient inclusion in the respective trials were as follows. The diagnosis of chronic non-insertional Achilles tendinopathy was based on an insidious onset of Achilles tendon pain, a tender nodule localized to the region 2 to 6 centimeters from the calcaneal insertion, and an ultrasound examination that excluded a frank tendon tear. The diagnosis of chronic extensor tendinopathy at the elbow was based on an insidious onset of lateral elbow pain, tenderness localized to the lateral humeral epicondyle and extensor carpi radialis brevis tendon, pain in the lateral elbow with resisted wrist or third metacarpophalangeal joint extension, and an ultrasound examination that excluded a frank tendon tear. The diagnosis of chronic supraspinatus tendinopathy was based on positive impingement signs (internal or external rotation), pain with supraspinatus muscle testing, and magnetic resonance imaging (MRI) high signal intensity without frank tear in the supraspinatus tendon.
Patients were excluded if they had tendinopathy of less than three months duration, current pregnancy, previous surgery on the affected limb or tendon, dislocation of the ipsilateral limb joints, distal neurological signs, a local corticosteroid injection in the previous three months, the current use of nitrate medications or phosphodiesterase inhibitors such as Viagra™, a family history of arthritis other than osteoarthritis, or extra-articular features of seronegative arthropathies. Generally, every participating patient could be considered to have persistent active tendinopathy.
as §2
The transdermal patches were intact when distributed, and patients were required to cut the patches into quarters prior to application. Patients were also given a supply of paracetamol tablets (500 mg), and were instructed to use them exclusively for any headaches experienced.
as §3
At the initial clinical assessment, all patients were instructed in the performance of a tendon specific rehabilitation program. […]

[4] = GTN group, range over three trials
[5] = GTN groups, range over three trials

SMILES: O=[N+]([O-])OCC(CO[N+](=O)[O-])O[N+](=O)[O-] [glyceryl trinitrate, 1,2,3-propanetriol trinitrate]
- headache as a side-effect ([1]; GTN group): majority of patients
- average number of days of headache [1, 4]: 5 to 6 days
- headache, patients [1, 4]: 53-76%
- median number of days of headache [1, 4]: 3 to 4 days
- headaches that occurred within the first two weeks of the trial ([1]; GTN groups): 72%
- average paracetamol usage [1, 5]: 7-14 tablets
- median paracetamol usage [1, 5]: 2-10 tablets
- patients that experienced no side-effects [1, 5]: 30-44%
- total paracetamol usage [1, 5]: 138-237 tablets
- patients experiencing application site rash ([1]; GTN groups, range over three trials, placebo 7-12%): 8-21%
- tendon pain with activity vs placebo ([1]; all three trials, timing varied): significantly improved
- chance of being asymptomatic with activities of daily living vs placebo (Chi square) ([1]; at 24 weeks, all three clinical trials, p=0.001): significantly increased
- more patients than in the placebo group asymptomatic with activities of daily living (rated tendon excellent) ([1]; completion of the trials, range over three trials): 21-29%
- changes in patient success rates (binomial effect size displays) ([1]; equivalent to effect sizes at week 24): 12-26%
- other side-effects (increase in pre-existing tinnitus, ipsilateral axillary sweating, apprehension): severity and reversibility ([1]; human, in vivo): None of these were severe, and all were reversible on discontinuation of the medication
- severity of rash vs placebo ([1]; human, in vivo): greater severity of rash
- patients discontinued due to headache ([1]; in each clinical trial): 1-2 patients
- severity of headaches vs placebo ([1]; in general): more severe headaches
- patients discontinued during the trials ([1]; of clinical trial patients, all in GTN groups, headache or application site rash): 4-6%
- patients discontinued due to rash, total ([1]; three trials): five
- patients discontinued for recurrent facial flushing ([1]; type 2 diabetic, reversible on discontinuation): One
- decrease of patient-rated pain scores, range over the trials ([1]; week 0 compared with week 24): 64-67%
- increase of force outcome measures, range over the trials ([1]; week 0 compared with week 24): 33-38%
- increase of force outcome measures, average ([1]; week 0 compared with week 24, placebo […]%): 37%
- decrease of patient-rated pain scores (with activity, at night, at rest), average ([1]; week 0 compared with week 24, placebo 30%): 65%
- force outcome measures vs placebo ([1]; week 24, all three trials): significant increases
- mean estimated effect sizes ([1]; week 24, range over three trials): 0.12-0.26
- pain after administration is stopped ([2]; 2 years after stop, negative Finklestein test): continue to have reduced pain
- pain during administration ([2]; patch 10 mcg/hr for 24 weeks, person): decrease in pain within one day
- Headache (Days) Average ([3]; GTN group): GTN 6 Days
- Headache (Days) Median ([3]; GTN group): GTN 4 Days
- Headache (Days) Total ([3]; GTN group): GTN 127 Days
- Headache: percentage of patients ([3]; GTN group): (76%)
- No Side Effects ([3]; GTN group): GTN 30%
- Tenderness Outcomes vs placebo ([3]; anteroinferior subacromial tenderness): no significant differences
- Other Noted Side-Effects: Rash ([3]; application site, GTN group): Rash 8%
- number needed to treat (NNT) ([3]; excellent result at 24 weeks, Chi square p=0.007): 4.5
- reported rate of headache and average number of headaches experienced vs placebo ([3]; human, in vivo): significant between-group differences
- number of days affected by headache vs placebo ([3]; p=0.001): significant increase
- Discontinuations: Headache ([3]; patients, all GTN group): Headache 2
- Paracetamol Average ([3]; used for headache, GTN group): GTN 7 tablets
- Paracetamol Median ([3]; used for headache, GTN group): GTN 2 tablets
- Paracetamol Total ([3]; used for headache, GTN group): GTN 138 tablets
- Improved Patient Outcomes ([3]; week 24, more patients asymptomatic with activities of daily living than placebo, 1.25 mg/24 h patch + rehabilitation): 22%
- patients with excellent improvement, patient reported ([3]; week 24, placebo 24%): 46%
